Source: article PMC8968665, “Verteporfin is a substrate-selective γ-secretase inhibitor that binds the amyloid precursor protein transmembrane domain” (The Journal of Biological Chemistry, 2022)
Entries after “also recorded” stand apart in the source; their conditions may differ. Where two headings read alike, the source gives them in different places.

Assays:
[1] = system: T1, C99; experiment: 2D 1H,1H-NOESY of 1:1 verteporfin:C99 mixture; type: binding, human; conditions: 300 μM C99 and 300 μM verteporfin, 2.5% d27-LMPG
T1 construct: the transmembrane 99 residue C-terminal (C99) domain; His tag (either the C-terminal hexa-His that is kept, or the N-terminal His of C99-NT2 removed by thrombin); made in house; host or cells: E. coli BL21DE3
Method: A sample was prepared containing 300 μM C99 and 300 μM Verteporfin in 2.5% d^27-LMPG (deuterated alkyl chains), 50 mM d^4-Imidazole (deuterated imidazole), 100 mM NaCl, 0.5 mM EDTA, 1 mM DSS, pH 6.5 in 85% D2O. The ^1H-^1H NOESY experiment was recorded on the 800 MHz spectrometer with a mixing time of 120 ms, relaxation delay of 2 s, 4k × 1k data acquisition matrix, using the standard Bruker pulse program (noesyphpr).

[2] = target: T2, γ-secretase cleavage of C100-Flag (C99) (Homo sapiens, UniProt P05067); experiment: γ-Secretase assay, C100-FLAG cleavage, AICD by anti-Flag Western blot; type: biochemical
T2 construct: C100 is C99 with an added N-terminal Met residue; made in house
T2 sequence (P05067 672-770 limits assumed): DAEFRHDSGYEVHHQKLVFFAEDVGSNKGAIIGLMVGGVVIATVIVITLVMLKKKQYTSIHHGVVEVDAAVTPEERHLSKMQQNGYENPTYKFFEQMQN
Method: The γ-secretase-dependent proteolysis assays with both substrates (C100-FLAG and HexaHis Notch 1 JM/TM) were performed in a weak zwitterionic detergent (CHAPSO, 3-[(3- cholamidopropyl)dimethylammonio]-2-hydroxy-1-propanesulfonate) solubilized conditions ([79], [80]). C100 is C99 with an added N-terminal Met residue. […] Proteolytic reactions were initiated by adding purified substrates (either C100-FLAG(79) or HexaHis-Notch 1 JM/TM(77)) and incubating at 37 °C (16 h for C100Flag and 4 h for HexaHis-Notch 1 JM/TM). Reactions were quenched with SDS, and the cleaved intracellular domain products (AICD-FLAG released from C100-FLAG or truncated intracellular domain (NICD) released from the proteolysis of Hexa-His Notch 1 JM/TM) were visualized by Western blot using specific primary antibodies, anti-FLAG antibody for FLAG-tagged AICD, and neoepitope-specific anti-V1744 antibody for NICD ([80], [83], [84]).

[3] = system: T1, C99; experiment: Native ion mobility–mass spectrometry of C99–verteporfin mixtures; parameters: species or system human
From the text: IM-MS data were collected using a Synapt G2 HDMS IM-Q-ToF mass spectrometer (Waters), with a direct infusion nESI source set to positive ion mode. The instrument settings were tuned to generate intact C99–verteporfin complex ions while completely dissociating them from detergent LMPG micelles, including appropriately tuned settings for the sampling cone 80 V, trap cell accelerating potential 80 V, and the transfer cell accelerating potential 70 V. The trapping cell wave velocity and height were 116 m/s and 0.1 V, respectively. The IMS wave velocity and height were 250 m/s and 15 V, respectively. The transfer cell wave velocity and height were 300 m/s and 10 V. Prior to analysis, C99 in LMPG micelles at a protein concentration of 20 μM C99 and 100X CMC LMPG or DDMB samples were prepared by incubating 20 μM C99 with 100X CMC LMPG for 30 min, then titrating in DMSO or Verteporfin and incubating in the dark overnight. Verteporfin-binding buffer conditions were 200 mM Ammonium Acetate at pH 4.5.

## verteporfin
[1]
  direct intermolecular contact with C99 (NOESY cross-peaks): confirms direct binding
[2]; 30 nM purified γ-secretase, C100-Flag, 16 h, 37 °C, n = 3, read-out: IC50, inhibition of AICD production
  IC50: 164 ± 45 µM
[2]; 30 nM γ-secretase
  degree of inhibition of C99 cleavage at saturating verteporfin: approximately 75%
[2]; 100 µM verteporfin, 2 µM C100-Flag, 1 nM γ-secretase, Fig. S6A
  C100-Flag cleavage efficiency (Western blot): greatly reduced
[2]; depending on assay conditions (1 nM to 30 nM enzyme), read-out: IC50 range for γ-secretase cleavage of C99
  IC50: 15 to 164 µM
[3]; LMPG and DDMB micelles, 0–50 μM verteporfin, low detergent conditions, n = 3
  change in C99 oligomeric state (IM-MS): only a marginal increase in the population of dimeric C99; also recorded: does not undergo any significant change in oligomeric state
[3]; samples kept in the dark
  covalent modification of C99 (mass by IM-MS): no covalent modification
